We go through 17 compounds from patent publication US9351974B2, “Substituted pteridinones for the treatment of cancer” (OSI Pharmaceuticals, LLC, priority 2011, dated 2016).

One may read the IC50 as the point on the concentration scale where inhibition reaches its midpoint.

Where only a bound is given, the exact number is not on record here.

One assay has as its system RSK1-4. Particulars: G. P. Sapkota et al., Biochem J., 401, 29-38 (2007); cited from earlier work.
Assay [1] has as its target T1, His-tagged full-length RSK2 (RPS6KA3) (Homo sapiens, UniProt P51812).
T1 construct: His-tagged full-length RSK2 (RPS6KA3, Invitrogen PV3323); His; purchased Invitrogen PV3323
The experiment in a line: RSK2 Omnia Assay for compound IC50 determination. The note with it: ATP 15 μM, n=2, read-out: Mean RSK2 Biochem IC50. The format is biochemical. The method, boiled down:
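Initial-rate slopes from continuous kinetic reads were fitted to a four-parameter equation for IC50 (n=2). Ki was then derived by Cheng-Prusoff assuming ATP-competitive inhibition. Reactions contained 15 μM ATP (Km 16.3 μM), 5 μM Omnia ST Peptide 6, and […] in 50 mM HEPES pH 7.5, 10 mM MgCl2, 1 mM DTT, 1% DMSO. Compounds spanned 11 threefold steps, […] final.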

Assay [2] addresses T2, His-tagged full length RSK1 (RPS6KA1) (Homo sapiens, UniProt Q15418).
T2 construct: His-tagged full length RSK1 (RPS6KA1, Millipore 14-509); His; purchased Millipore 14-509
The experiment in a line: RSK1 Omnia Assay for compound IC50 determination. The format is biochemical. Particulars: ATP 15 μM, n=2, read-out: Mean RSK1 Biochem IC50. The protocol: RSK1 & RSK2 Omnia Assay Protocol for Compound IC50 Determination
The Omnia Assay (Invitrogen) has been optimized for His-tagged full length RSK1 (RPS6KA1, Millipore 14-509) and for His-tagged full-length RSK2 (RPS6KA3, Invitrogen PV3323). In this assay system, Omnia ST Peptide 6 (Invitrogen KNZ1061) functions as a substrate for RSK1 or RSK2. Phosphorylation of this SOX-containing peptide results in an increase in fluorescence at 485 nm upon excitation at 360 nm.
Assays are carried out in 384-well OptiPlates (Perkin Elmer 6007290) in a total volume of 20 μL containing RSK1 ([…]) or RSK2 ([…]), Omnia ST Peptide 6 (5 μM), ATP (15 μM, Km=16.3 μM), and test compound (variable) in RSK assay buffer (50 mM HEPES, pH 7.5, 10 mM MgCl2, 0.01% Tween-20, 1% glycerol, 1 mM DTT, 1 mM EGTA, 0.01% BSA) with 1% DMSO.
IC50s for test compounds are typically determined using an 11-point three-fold serial dilution with a final assay concentration ranging either from 170 μM to […] or from 17 μM to […]. All compound concentrations are assayed in duplicate. Initial compound dilutions are prepared at 100× concentration in 100% DMSO from a 10 mM stock solution. Compounds are further diluted 1:25 in assay buffer resulting in a 4× concentrated solution.
To run the assay 5 μL of the above 4× concentrated compound solution (or 4% DMSO for positive controls) is added to the assay plate followed by 5 μL of a solution containing peptide (20 μM) and ATP (60 μM) in assay buffer. The reaction is initiated by the addition of 10 μL of RSK1 ([…]) or RSK2 ([…]) in assay buffer, or assay buffer alone for negative controls. The increase in fluorescence due to peptide phosphorylation is monitored continuously as a function of time using a Spectramax M5 plate reader (Molecular Devices) equipped with SoftMax Pro software.
The slopes from the linear portion of progress curves are used to determine IC50 values by non-linear curve-fitting to a four-parameter equation using GraphPad Prism (GraphPad Software, Inc.) or XLFit (IDBS). IC50's are determined in duplicate (n=2) and Ki values are calculated from IC50 values using the Cheng-Prusoff equation assuming a competitive mode of inhibition.

T1 sequence (P51812 whole entry): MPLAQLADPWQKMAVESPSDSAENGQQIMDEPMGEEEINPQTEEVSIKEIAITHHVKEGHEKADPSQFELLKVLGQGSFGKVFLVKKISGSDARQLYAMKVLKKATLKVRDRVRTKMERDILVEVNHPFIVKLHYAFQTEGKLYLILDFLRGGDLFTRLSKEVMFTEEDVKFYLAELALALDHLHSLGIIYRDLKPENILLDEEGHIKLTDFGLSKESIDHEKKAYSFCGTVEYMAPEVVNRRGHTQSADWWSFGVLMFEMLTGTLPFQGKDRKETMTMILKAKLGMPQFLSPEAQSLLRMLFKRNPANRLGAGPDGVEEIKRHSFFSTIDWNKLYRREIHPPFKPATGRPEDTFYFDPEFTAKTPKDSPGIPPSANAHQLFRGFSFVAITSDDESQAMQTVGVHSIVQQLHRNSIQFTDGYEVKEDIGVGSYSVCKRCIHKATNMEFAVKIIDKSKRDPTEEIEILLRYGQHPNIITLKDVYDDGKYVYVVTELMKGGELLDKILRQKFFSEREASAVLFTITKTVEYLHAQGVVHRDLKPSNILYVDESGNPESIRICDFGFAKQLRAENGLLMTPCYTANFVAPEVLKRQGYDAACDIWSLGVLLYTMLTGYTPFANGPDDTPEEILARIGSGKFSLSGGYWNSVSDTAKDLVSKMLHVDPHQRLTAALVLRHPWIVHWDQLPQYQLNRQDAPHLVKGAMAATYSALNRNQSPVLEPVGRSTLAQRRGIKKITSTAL
T2 sequence (Q15418 whole entry): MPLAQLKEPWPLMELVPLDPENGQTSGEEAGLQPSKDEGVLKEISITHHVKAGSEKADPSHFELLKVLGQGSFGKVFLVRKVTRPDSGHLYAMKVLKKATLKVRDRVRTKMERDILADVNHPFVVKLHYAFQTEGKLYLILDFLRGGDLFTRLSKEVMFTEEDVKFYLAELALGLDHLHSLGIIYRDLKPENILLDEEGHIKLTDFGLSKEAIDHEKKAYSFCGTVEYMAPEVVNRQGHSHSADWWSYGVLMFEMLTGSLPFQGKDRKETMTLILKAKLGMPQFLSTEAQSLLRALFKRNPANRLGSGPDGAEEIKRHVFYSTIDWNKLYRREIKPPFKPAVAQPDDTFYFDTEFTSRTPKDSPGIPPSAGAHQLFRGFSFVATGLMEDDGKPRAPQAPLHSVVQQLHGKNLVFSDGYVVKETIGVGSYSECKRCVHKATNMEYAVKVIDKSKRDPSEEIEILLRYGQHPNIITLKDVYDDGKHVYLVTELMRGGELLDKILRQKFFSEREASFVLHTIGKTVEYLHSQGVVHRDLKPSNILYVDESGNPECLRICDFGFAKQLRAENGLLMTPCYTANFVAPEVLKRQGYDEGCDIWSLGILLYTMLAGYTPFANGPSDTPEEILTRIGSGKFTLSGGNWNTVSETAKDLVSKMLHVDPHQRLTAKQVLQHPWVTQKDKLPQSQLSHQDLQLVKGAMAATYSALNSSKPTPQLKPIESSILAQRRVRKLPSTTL

With `CC(C)CCN1c2nc(Nc3cc(F)c(O)c(F)c3)ncc2N(C)C(=O)C1C` (stereo not drawn) [BI-D1870], the “inhibitor of RSK1-4” value in the assay with RSK1-4 was “potent inhibitor”.
Turning to `C[C@@H]1C(=O)N(c2cccnc2)c2cnc(Nc3ccc4[nH]ncc4c3)nc2N1C1CCCCC1` [Example 23, (7R)-8-cyclohexyl-2-(1H-indazol-5-ylamino)-7-methyl-5-(pyridin-3-yl)-7,8-dihydropteridin-6(5H)-one], the IC50 in assay [1] and in assay [2] was no more than 0.1 µM each time.
In the case of `C[C@@H]1C(=O)N(c2cccc(C#N)c2)c2cnc(Nc3ccc4[nH]ncc4c3)nc2N1C1CCCCC1` [Example 29, 3-[(7R)-8-cyclohexyl-2-(1H-indazol-5-ylamino)-7-methyl-6-oxo-7,8-dihydropteridin-5(6H)-yl]benzonitrile], the half-inhibitory concentration (IC50) in assay [1] and in assay [2] was no more than 0.1 µM each time.
For `C[C@@H]1C(=O)N(c2ccsc2)c2cnc(Nc3ccc4[nH]ncc4c3)nc2N1C1CCCCC1` [Example 57, (7R)-8-cyclohexyl-2-(1H-indazol-5-ylamino)-7-methyl-5-(thiophen-3-yl)-7,8-dihydropteridin-6(5H)-one], the IC50 in assay [1] and in assay [2] was no more than 0.1 µM throughout.
Take `C[C@@H]1C(=O)N(c2ccccc2)c2cnc(Nc3ccc4[nH]ncc4c3)nc2N1C1CCCC1` [Example 66, (7R)-8-cyclopentyl-2-(1H-indazol-5-ylamino)-7-methyl-5-phenyl-7,8-dihydropteridin-6(5H)-one]: the IC50 in assay [1] and in assay [2] was no more than 0.1 µM each time.
For the compound `CC[C@@H]1C(=O)N(c2ccc(N3CCOCC3)nc2)c2cnc(Nc3cc(F)c4[nH]ncc4c3)nc2N1C1CCCCC1` [compound 292, (7R)-8-cyclohexyl-7-ethyl-2-[(7-fluoro-1H-indazol-5-yl)amino]-5-[6-(morpholin-4-yl)pyridin-3-yl]-7,8-dihydropteridin-6(5H)-one], the IC50 in assay [1] is no more than 0.1 µM.
The same measure, in the same setting: the value for `CC[C@@H]1C(=O)N(c2ccc(N(C)C)nc2)c2cnc(Nc3cc(F)c4[nH]ncc4c3)nc2N1C1CCCCC1` [compound 293, (7R)-8-cyclohexyl-5-[6-(dimethylamino)pyridin-3-yl]-7-ethyl-2-[(7-fluoro-1H-indazol-5-yl)amino]-7,8-dihydropteridin-6(5H)-one] was no more than 0.1 µM.
Same read-out and setting: the value for `CC[C@@H]1C(=O)N(c2ccc(OC)c(F)c2)c2cnc(Nc3cc(F)c4[nH]ncc4c3)nc2N1C1CCCCC1` [compound 294, (7R)-8-cyclohexyl-7-ethyl-2-[(7-fluoro-1H-indazol-5-yl)amino]-5-(3-fluoro-4-methoxyphenyl)-7,8-dihydropteridin-6(5H)-one] was no more than 0.1 µM.
The same measure, in the same setting: the value for `CC[C@@H]1C(=O)N(c2cccc(C#N)c2)c2cnc(Nc3ccc4[nH]nc(F)c4c3)nc2N1C1CCCCC1` [compound 295, 3-[(7R)-8-cyclohexyl-7-ethyl-2-[(3-fluoro-1H-indazol-5-yl)amino]-6-oxo-7,8-dihydropteridin-5(6H)-yl]benzonitrile] was no more than 0.1 µM.
As to `[2H]C1([2H])C(N2c3nc(Nc4cc(F)c5[nH]ncc5c4)ncc3N(c3ccc(OC)c(OC)c3)C(=O)[C@H]2C)C([2H])([2H])C([2H])([2H])C([2H])([2H])C1([2H])[2H]` [compound 300, (7R)-8-[(2,2,3,3,4,4,5,5,6,6-2H10)cyclohexyl]-5-(3,4-dimethoxyphenyl)-2-[(7-fluoro-1H-indazol-5-yl)amino]-7-methyl-7,8-dihydropteridin-6(5H)-one], the IC50 in assay [1] was no more than 0.1 µM.
On the same count and under the same terms, the value for `[2H]C1([2H])C(N2c3nc(Nc4cc(F)c5[nH]ncc5c4)ncc3N(c3cccnc3)C(=O)[C@H]2C)C([2H])([2H])C([2H])([2H])C([2H])([2H])C1([2H])[2H]` [compound 301, (7R)-8-[(2,2,3,3,4,4,5,5,6,6-2H10)cyclohexyl]-2-[(7-fluoro-1H-indazol-5-yl)amino]-7-methyl-5-(pyridin-3-yl)-7,8-dihydropteridin-6(5H)-one] was no more than 0.1 µM; that for `[2H]C1([2H])C(N2c3nc(Nc4cc(F)c5[nH]ncc5c4)ncc3N(c3cccc(C#N)c3)C(=O)[C@H]2C)C([2H])([2H])C([2H])([2H])C([2H])([2H])C1([2H])[2H]` [compound 302, 3-[(7R)-8-[(2,2,3,3,4,4,5,5,6,6-2H10)cyclohexyl]-2-[(7-fluoro-1H-indazol-5-yl)amino]-7-methyl-6-oxo-7,8-dihydropteridin-5(6H)-yl]benzonitrile] was no more than 0.1 µM; that for `C[C@@H]1C(=O)N(c2ccc[n+]([O-])c2)c2cnc(Nc3cc(F)c4[nH]ncc4c3)nc2N1C1CCC(C)(C)CC1` [compound 304, (7R)-8-(4,4-dimethylcyclohexyl)-2-[(7-fluoro-1H-indazol-5-yl)amino]-7-methyl-5-(1-oxidopyridin-3-yl)-7,8-dihydropteridin-6(5H)-one] was no more than 0.1 µM.
Still for that read-out and setting: the value for `COc1ccc(N2C(=O)[C@@H](C)N(C3CCC(=O)CC3)c3nc(Nc4cc(F)c5[nH]ncc5c4)ncc32)cc1OC` [compound 308, (7R)-5-(3,4-dimethoxyphenyl)-2-[(7-fluoro-1H-indazol-5-yl)amino]-7-methyl-8-(4-oxocyclohexyl)-7,8-dihydropteridin-6(5H)-one] was no more than 0.1 µM.
Still for that read-out and setting: the value for `C[C@@H]1C(=O)N(c2cccc(C#N)c2)c2cnc(Nc3ccc4[nH]ncc4c3)nc2N1[C@H]1CC[C@@H](O)CC1` [compound 309, 3-[(7R)-8-(cis-4-hydroxycyclohexyl)-2-(1H-indazol-5-ylamino)-7-methyl-6-oxo-7,8-dihydropteridin-5(6H)-yl]benzonitrile] was greater than 1 µM; that for “(7R)-8-cyclohexyl-2-(1H-indazol-5-ylamino)-7-methyl-5-[4-(morpholin-4-yl)phenyl]-7,8-dihydropteridin-6(5H)-one [compound 126]” was no more than 0.1 µM; that for “(7R)-8-cyclohexyl-2-[(7-fluoro-1H-indazol-5-yl)amino]-7-methyl-5-[4-(morpholin-4-yl)phenyl]-7,8-dihydropteridin-6(5H)-one [compound 134]” was no more than 0.1 µM.
